Test results taken from ChEMBL document CHEMBL1201862, “PubChem BioAssay data set” (2004).
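Method: 48-hour compound exposure of cells in 96-well plates, five concentrations, linear interpolation of endpoints. GI50 marks 50% less growth.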 Activity calls are given as the source filed them. No stated cut-off is given here; in the data, active = GI50 up to about 1.1 µM and inactive = higher.

What was measured:
Assay in all cases: NCI-60 cell line screen, 48 h
[1] = test system: BT-549
[2] = test system: CAKI-1
[3] = test system: HOP-92
[4] = test system: MDA-MB-231
[5] = test system: RPMI-8226
[6] = test system: MOLT-4
[7] = test system: OVCAR-5
[8] = test system: HT-29
[9] = test system: UACC-62
[10] = test system: RXF 393
[11] = test system: 786-0
[12] = test system: UO-31
[13] = test system: MDA-MB-435
[14] = test system: M14
[15] = test system: T47D
[16] = test system: SK-OV-3
[17] = test system: OVCAR-4
[18] = test system: SN12C
[19] = test system: COLO 205
[20] = test system: SNB-75
[21] = test system: ACHN
[22] = test system: SNB-19
[23] = test system: NCI-H23
[24] = test system: HCT-116
[25] = test system: EKVX
[26] = test system: PC-3
[27] = test system: HL-60
[28] = test system: UACC-257
[29] = test system: IGROV-1
[30] = test system: A498
[31] = test system: Malme-3M
[32] = test system: KM12
[33] = test system: NCI-H226
[34] = test system: MDA-N
[35] = test system: SF-539
[36] = test system: HCC 2998
[37] = test system: MCF7
[38] = test system: SK-MEL-5
[39] = test system: HOP-62
[40] = test system: SW-620
[41] = test system: DU-145
[42] = test system: Hs-578T
[43] = test system: HCT-15
[44] = test system: OVCAR-3
[45] = test system: NCI/ADR-RES
[46] = test system: SK-MEL-28
[47] = test system: CCRF-CEM
[48] = test system: U-251
[49] = test system: OVCAR-8
[50] = test system: NCI-H460
[51] = test system: NCI-H522
[52] = test system: LOX IMVI
[53] = test system: K562
[54] = test system: SR
[55] = test system: TK-10
[56] = test system: SF-295
[57] = test system: SK-MEL-2
[58] = test system: A549
[59] = test system: DMS-114
[60] = test system: LXFL 529
[61] = test system: SNB-78
[62] = test system: DMS-273
[63] = test system: M19-MEL
[64] = test system: KM-20L2
[65] = test system: SF-268
[66] = test system: DLD-1

CC(=O)NC1C(OCc2ccccc2)OC(CO)C(O)C1OCC(=O)N[C@@H](C)C(=O)N[C@H](CCC(=O)NCCCNc1c2ccccc2nc2cccc([N+](=O)[O-])c12)C(N)=O (some centres undefined)
GI50 [1]: 0.0845 µM (active)
GI50 [2]: 0.0338 µM (active)
GI50 [3]: 0.0295 µM (active)
GI50 [4]: 0.05 µM (active)
GI50 [5]: 0.0411 µM (active)
GI50 [6]: 0.0269 µM (active)
GI50 [7]: 0.0718 µM (active)
GI50 [8]: < 0.0149 µM (active)
GI50 [9]: 0.0321 µM (active)
GI50 [10]: 0.0352 µM (active)
GI50 [11]: < 0.0168 µM (active)
GI50 [12]: 0.123 µM (active)
GI50 [13]: 0.0295 µM (active)
GI50 [14]: 0.0341 µM (active)
GI50 [15]: 0.047 µM (active)
GI50 [16]: 0.334 µM (active)
GI50 [17]: 0.0418 µM (active)
GI50 [18]: 0.0397 µM (active)
GI50 [19]: 0.0118 µM (active)
GI50 [20]: 0.122 µM (active)
GI50 [21]: 0.0182 µM (active)
GI50 [22]: 0.16 µM (active)
GI50 [23]: 0.0248 µM (active)
GI50 [24]: < 0.0127 µM (active)
GI50 [25]: 0.0462 µM (active)
GI50 [26]: 0.0368 µM (active)
GI50 [27]: 0.0559 µM (active)
GI50 [28]: 0.0448 µM (active)
GI50 [29]: 0.0506 µM (active)
GI50 [30]: 0.0547 µM (active)
GI50 [31]: 0.0292 µM (active)
GI50 [32]: 0.037 µM (active)
GI50 [33]: 0.0586 µM (active)
GI50 [34]: 0.023 µM (active)
GI50 [35]: 0.0298 µM (active)
GI50 [36]: 0.0142 µM (active)
GI50 [37]: 0.018 µM (active)
GI50 [38]: 0.0148 µM (active)
GI50 [39]: 0.08 µM (active)
GI50 [40]: 0.0172 µM (active)
GI50 [41]: 0.0308 µM (active)
GI50 [42]: 0.156 µM (active)
GI50 [43]: 0.0312 µM
GI50 [44]: 0.0678 µM (active)
GI50 [45]: 0.564 µM (active)
GI50 [46]: 0.205 µM (active)
GI50 [47]: 0.052 µM (active)
GI50 [48]: 0.0349 µM (active)
GI50 [49]: 0.0746 µM (active)
GI50 [50]: 0.0101 µM (active)
GI50 [51]: < 0.0111 µM (active)
GI50 [52]: 0.0439 µM (active)
GI50 [53]: 0.0229 µM (active)
GI50 [54]: 0.0249 µM (active)
GI50 [55]: 0.0253 µM (active)
GI50 [56]: 0.15 µM (active)
GI50 [57]: 0.0404 µM (active)
GI50 [58]: 0.0245 µM (active)

CCOC(=O)C1=C(C(=O)OCC)C2c3ccccc3C=CN2C(C(=O)OCC)=C(SC)S1 (centres undefined)
GI50 [2]: > 100 µM (inactive)
GI50 [5]: 17.8 µM (inactive)
GI50 [6]: 21.6 µM (inactive)
GI50 [7]: > 100 µM (inactive)
GI50 [8]: > 100 µM (inactive)
GI50 [9]: 58.1 µM (inactive)
GI50 [10]: 73.1 µM (inactive)
GI50 [11]: > 100 µM (inactive)
GI50 [12]: 74.1 µM (inactive)
GI50 [14]: 89.1 µM (inactive)
GI50 [16]: > 100 µM (inactive)
GI50 [18]: 98.4 µM (inactive)
GI50 [19]: 91.6 µM (inactive)
GI50 [20]: > 100 µM (inactive)
GI50 [21]: > 100 µM (inactive)
GI50 [22]: > 100 µM (inactive)
GI50 [23]: 87.1 µM (inactive)
GI50 [24]: 50.7 µM (inactive)
GI50 [59]: 52.5 µM (inactive)
GI50 [25]: > 100 µM (inactive)
GI50 [27]: 25.9 µM (inactive)
GI50 [28]: 42.5 µM (inactive)
GI50 [29]: > 100 µM (inactive)
GI50 [60]: 51.2 µM (inactive)
GI50 [31]: > 100 µM (inactive)
GI50 [61]: 79.1 µM (inactive)
GI50 [33]: > 100 µM (inactive)
GI50 [35]: > 100 µM (inactive)
GI50 [62]: 63.1 µM (inactive)
GI50 [36]: > 100 µM (inactive)
GI50 [38]: 32.4 µM (inactive)
GI50 [39]: > 100 µM (inactive)
GI50 [40]: 92.9 µM (inactive)
GI50 [43]: 79.8 µM
GI50 [63]: > 100 µM (inactive)
GI50 [44]: 96.2 µM (inactive)
GI50 [64]: > 100 µM (inactive)
GI50 [65]: > 100 µM (inactive)
GI50 [46]: > 100 µM (inactive)
GI50 [47]: 30.8 µM (inactive)
GI50 [48]: 50.7 µM (inactive)
GI50 [49]: > 100 µM (inactive)
GI50 [50]: > 100 µM (inactive)
GI50 [66]: > 100 µM (inactive)
GI50 [51]: 24.4 µM (inactive)
GI50 [52]: 97.3 µM (inactive)
GI50 [53]: 41.8 µM (inactive)
GI50 [54]: 19.3 µM (inactive)
GI50 [55]: > 100 µM (inactive)
GI50 [56]: > 100 µM (inactive)
GI50 [57]: > 100 µM (inactive)
GI50 [58]: 47.6 µM (inactive)

CCOC(=O)Oc1ccc(C(CNC(C)C)OC(=O)OCC)cc1OC(=O)OCC (centres undefined)
GI50 [1]: > 100 µM (inactive)
GI50 [2]: > 100 µM (inactive)
GI50 [3]: > 100 µM (inactive)
GI50 [4]: 26.2 µM (inactive)
GI50 [5]: > 100 µM (inactive)
GI50 [6]: 96.8 µM (inactive)
GI50 [7]: > 100 µM (inactive)
GI50 [8]: > 100 µM (inactive)
GI50 [9]: > 100 µM (inactive)
GI50 [10]: 11.5 µM (inactive)
GI50 [11]: > 100 µM (inactive)
GI50 [12]: 43.4 µM (inactive)
GI50 [13]: > 100 µM (inactive)
GI50 [14]: > 100 µM (inactive)
GI50 [15]: > 100 µM (inactive)
GI50 [16]: > 100 µM (inactive)
GI50 [17]: 65.5 µM (inactive)
GI50 [18]: > 100 µM (inactive)
GI50 [19]: > 100 µM (inactive)
GI50 [20]: > 100 µM (inactive)
GI50 [21]: > 100 µM (inactive)
GI50 [22]: > 100 µM (inactive)
GI50 [23]: > 100 µM (inactive)
GI50 [24]: > 100 µM (inactive)
GI50 [25]: > 100 µM (inactive)
GI50 [26]: > 100 µM (inactive)
GI50 [27]: 25.4 µM (inactive)
GI50 [28]: > 100 µM (inactive)
GI50 [29]: > 100 µM (inactive)
GI50 [30]: > 100 µM (inactive)
GI50 [31]: > 100 µM (inactive)
GI50 [32]: > 100 µM (inactive)
GI50 [33]: > 100 µM (inactive)
GI50 [34]: > 100 µM (inactive)
GI50 [35]: > 100 µM (inactive)
GI50 [36]: > 100 µM (inactive)
GI50 [37]: > 100 µM (inactive)
GI50 [38]: > 100 µM (inactive)
GI50 [39]: > 100 µM (inactive)
GI50 [40]: > 100 µM (inactive)
GI50 [41]: > 100 µM (inactive)
GI50 [42]: > 100 µM (inactive)
GI50 [43]: > 100 µM
GI50 [44]: > 100 µM (inactive)
GI50 [45]: > 100 µM (inactive)
GI50 [65]: > 100 µM (inactive)
GI50 [46]: > 100 µM (inactive)
GI50 [47]: 48.1 µM (inactive)
GI50 [48]: > 100 µM (inactive)
GI50 [49]: > 100 µM (inactive)
GI50 [50]: > 100 µM (inactive)
GI50 [51]: 49.9 µM (inactive)
GI50 [52]: > 100 µM (inactive)
GI50 [53]: > 100 µM (inactive)
GI50 [54]: > 100 µM (inactive)
GI50 [55]: > 100 µM (inactive)
GI50 [56]: > 100 µM (inactive)
GI50 [57]: > 100 µM (inactive)
GI50 [58]: > 100 µM (inactive)
